Measurements reported in PubChem BioAssay AID2004 (Sanford-Burnham Center for Chemical Genomics, 2009).

Target: Dual specificity protein phosphatase 3 (Homo sapiens) (UniProt P51452)
Assay: PubChem AID 2004
Settings: recombinant VHR phosphatase, colorimetric substrate read-out

Sequence of Dual specificity protein phosphatase 3 (Homo sapiens) (P51452 whole entry, looked up): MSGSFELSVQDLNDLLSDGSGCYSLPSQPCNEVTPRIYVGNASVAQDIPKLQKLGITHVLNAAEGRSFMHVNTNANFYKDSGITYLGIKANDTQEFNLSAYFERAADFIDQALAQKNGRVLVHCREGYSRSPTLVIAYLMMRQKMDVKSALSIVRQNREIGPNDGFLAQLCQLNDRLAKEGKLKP

SMILES	Ki [µM]
CC1=C(C#N)c2nc(N)c(C#N)c(C)c2/C1=C/c1ccc(-c2ccc(C(=O)O)c(Cl)c2)o1	3.87
S=C(Nc1ccc2c(c1)oc1ccccc12)Nc1cccc2ccccc12	2.94
COc1ccc(N2C(=O)/C(=C/c3ccc(I)o3)C(=O)NC2=S)cc1	4.44
O=c1[nH]c(=S)n(-c2cccc(Cl)c2)c(O)c1/C=C1/C=CC=N1	3.49
O=C(O)c1cccc(-c2ccc(/C=N/Nc3ccc([N+](=O)[O-])cn3)o2)c1	13.8
O=C(O)C(Cc1ccccc1)N1C(=O)/C(=C/C=C/c2ccccc2)SC1=S (stereo not drawn)	2.01
O=C1/C(=C/C=C/c2ccccc2)SC(=S)N1CCS(=O)(=O)O	0.809
O=C1NC(=O)N(c2cccc(Br)c2)C(=O)/C1=C/c1ccc(-c2ccc(C(=O)O)cc2)o1	16.2
O=C(/C=C/c1ccco1)/C=C/c1ccc(-c2ccc(Cl)c(Cl)c2)o1	15.9
O=C1NC(=S)N(c2ccc(F)cc2)C(=O)/C1=C/c1ccc(Br)o1	12.1
O=C(/C=C/c1ccc(-c2ccccc2[N+](=O)[O-])o1)Nc1ccc(-c2nc3ccccc3o2)cc1	1.76
COc1ccc(OC)c2c1C(=O)c1ccccc1C2=O	3.07
O=C1c2cccc3c4ccccc4n(c23)C(=O)C1(O)O	13.8
O=C1C(Cl)=C/C(=N\S(=O)(=O)c2ccc(Cl)cc2)C(Cl)=C1Cl	13.4
Cc1ccc(C)n1-c1ccc(SCC(=O)O)cc1	2.09
C=CCN1C(=O)/C(=C\C=C\c2ccco2)C(=O)NC1=S	15.8
CCOC(=O)c1[nH]nc2c1C(=O)N(c1ccc(Br)cc1)C2=O	2.64
Cc1ccc(C)n1-c1ccc(C(=O)O)c(O)c1	12.8
